In brackets after ≈: the same amount, converted by molar mass.
Assays:
[1] = test system: Pseudomonas aeruginosa; format: functional; details: isolate Paebeta-24
[2] = test system: Pseudomonas aeruginosa; format: functional; details: isolate Paebeta-25
[3] = test system: Pseudomonas aeruginosa; format: functional; details: isolate Paebeta-27
[4] = test system: Pseudomonas aeruginosa; format: functional; details: isolate Paebeta-28
[5] = test system: Pseudomonas aeruginosa; format: functional; details: isolate Paebeta-29
[6] = test system: Pseudomonas aeruginosa; format: functional; details: isolate Paebeta-30
[7] = test system: Pseudomonas aeruginosa; format: functional; details: isolate Paebeta-22
[8] = test system: Pseudomonas aeruginosa; format: functional; details: isolate Paebeta-21
[9] = test system: Pseudomonas aeruginosa; format: functional; details: isolate Paebeta-20
[10] = test system: Pseudomonas aeruginosa; format: functional; details: isolate Paebeta-18
[11] = test system: Pseudomonas aeruginosa; format: functional; details: isolate Paebeta-17
[12] = test system: Pseudomonas aeruginosa; format: functional; details: isolate Paebeta-16
[13] = test system: Pseudomonas aeruginosa; format: functional; details: isolate Paebeta-15
[14] = test system: Pseudomonas aeruginosa; format: functional; details: isolate Paebeta-14
[15] = test system: Pseudomonas aeruginosa; format: functional; details: isolate Paebeta-13
[16] = test system: Pseudomonas aeruginosa; format: functional; details: isolate Paebeta-12
[17] = test system: Pseudomonas aeruginosa; format: functional; details: isolate Paebeta-11
[18] = test system: Pseudomonas aeruginosa; format: functional; details: isolate Paebeta-10
[19] = test system: Pseudomonas aeruginosa; format: functional; details: isolate Paebeta-09
[20] = test system: Pseudomonas aeruginosa; format: functional; details: isolate Paebeta-08
[21] = test system: Pseudomonas aeruginosa; format: functional; details: isolate Paebeta-07
[22] = test system: Pseudomonas aeruginosa; format: functional; details: isolate Paebeta-06
[23] = test system: Pseudomonas aeruginosa; format: functional; details: isolate Paebeta-05
[24] = test system: Pseudomonas aeruginosa; format: functional; details: isolate Paebeta-04
[25] = test system: Pseudomonas aeruginosa; format: functional; details: isolate Paebeta-03
[26] = test system: Pseudomonas aeruginosa; format: functional; details: isolate Paebeta-31
[27] = test system: Pseudomonas aeruginosa; format: functional; details: isolate Paebeta-32
[28] = test system: Pseudomonas aeruginosa; format: functional; details: isolate Paebeta-03; remark: listed apart in the source
[29] = test system: Pseudomonas aeruginosa; format: functional; details: isolate Paebeta-04; remark: listed apart in the source
[30] = test system: Pseudomonas aeruginosa; format: functional; details: isolate Paebeta-05; remark: listed apart in the source
[31] = test system: Pseudomonas aeruginosa; format: functional; details: isolate Paebeta-06; remark: listed apart in the source
[32] = test system: Pseudomonas aeruginosa; format: functional; details: isolate Paebeta-07; remark: listed apart in the source
[33] = test system: Pseudomonas aeruginosa; format: functional; details: isolate Paebeta-08; remark: listed apart in the source
[34] = test system: Pseudomonas aeruginosa; format: functional; details: isolate Paebeta-09; remark: listed apart in the source
[35] = test system: Pseudomonas aeruginosa; format: functional; details: isolate Paebeta-10; remark: listed apart in the source
[36] = test system: Pseudomonas aeruginosa; format: functional; details: isolate Paebeta-11; remark: listed apart in the source
[37] = test system: Pseudomonas aeruginosa; format: functional; details: isolate Paebeta-13; remark: listed apart in the source
[38] = test system: Pseudomonas aeruginosa; format: functional; details: isolate Paebeta-14; remark: listed apart in the source
[39] = test system: Pseudomonas aeruginosa; format: functional; details: isolate Paebeta-16; remark: listed apart in the source
[40] = test system: Pseudomonas aeruginosa; format: functional; details: isolate Paebeta-17; remark: listed apart in the source
[41] = test system: Pseudomonas aeruginosa; format: functional; details: isolate Paebeta-18; remark: listed apart in the source
[42] = test system: Pseudomonas aeruginosa; format: functional; details: isolate Paebeta-19
[43] = test system: Pseudomonas aeruginosa; format: functional; details: isolate Paebeta-20; remark: listed apart in the source
[44] = test system: Pseudomonas aeruginosa; format: functional; details: isolate Paebeta-21; remark: listed apart in the source
[45] = test system: Pseudomonas aeruginosa; format: functional; details: isolate Paebeta-22; remark: listed apart in the source
[46] = test system: Pseudomonas aeruginosa; format: functional; details: isolate Paebeta-23
[47] = test system: Pseudomonas aeruginosa; format: functional; details: isolate Paebeta-24; remark: listed apart in the source
[48] = test system: Pseudomonas aeruginosa; format: functional; details: isolate Paebeta-25; remark: listed apart in the source
[49] = test system: Pseudomonas aeruginosa; format: functional; details: isolate Paebeta-26
[50] = test system: Pseudomonas aeruginosa; format: functional; details: isolate Paebeta-27; remark: listed apart in the source
[51] = test system: Pseudomonas aeruginosa; format: functional; details: isolate Paebeta-28; remark: listed apart in the source
[52] = test system: Pseudomonas aeruginosa; format: functional; details: isolate Paebeta-29; remark: listed apart in the source
[53] = test system: Pseudomonas aeruginosa; format: functional; details: isolate Paebeta-30; remark: listed apart in the source
[54] = test system: Pseudomonas aeruginosa; format: functional; details: isolate Paebeta-31; remark: listed apart in the source
[55] = test system: Pseudomonas aeruginosa; format: functional; details: isolate Paebeta-32; remark: listed apart in the source
[56] = test system: Pseudomonas aeruginosa; format: functional; details: isolate Paebeta-23; remark: listed apart in the source
[57] = test system: Pseudomonas aeruginosa; test: microbe, parasite or virus in culture; details: isolate Paebeta-12
Description: Antibacterial activity against mexB, mexY and mexD expressing Pseudomonas aeruginosa isolate Paebeta-12 harboring A residue at 105 position in PDC- 2 and polymorphic OprD gene by Etest method in presence of cloxacillin

[58] = test system: Pseudomonas aeruginosa; format: functional; details: isolate Paebeta-26; remark: listed apart in the source
[59] = test system: Pseudomonas aeruginosa; format: functional; details: isolate Paebeta-19; remark: listed apart in the source
[60] = test system: Pseudomonas aeruginosa; format: functional; details: isolate Paebeta-02
[61] = test system: Pseudomonas aeruginosa; format: functional; details: isolate Paebeta-01
[62] = test system: Pseudomonas aeruginosa; format: functional; details: isolate Paebeta-01; remark: listed apart in the source
[63] = test system: Pseudomonas aeruginosa; format: functional; details: isolate Paebeta-02; remark: listed apart in the source
[64] = test system: Pseudomonas aeruginosa; format: functional; details: isolate Paebeta-15; remark: listed apart in the source

C[C@@H](O)[C@H]1C(=O)N2C(C(=O)O)=C(SCCNC=N)C[C@H]12 [IMIPENEM ANHYDROUS]
MIC [1]: 32 µg/mL (≈ 107 µM)
MIC [2]: 8 µg/mL (≈ 26.7 µM)
MIC [3]: 32 µg/mL (≈ 107 µM)
MIC [4]: 16 µg/mL (≈ 53.4 µM)
MIC [5]: 16 µg/mL (≈ 53.4 µM)
MIC [6]: 8 µg/mL (≈ 26.7 µM)
MIC [7]: 8 µg/mL (≈ 26.7 µM)
MIC [8]: 16 µg/mL (≈ 53.4 µM)
MIC [9]: 16 µg/mL (≈ 53.4 µM)
MIC [10]: 64 µg/mL (≈ 214 µM)
MIC [11]: 32 µg/mL (≈ 107 µM)
MIC [12]: 32 µg/mL (≈ 107 µM)
MIC [13]: 16 µg/mL (≈ 53.4 µM)
MIC [14]: 16 µg/mL (≈ 53.4 µM)
MIC [15]: 16 µg/mL (≈ 53.4 µM)
MIC [16]: 16 µg/mL (≈ 53.4 µM)
MIC [17]: 16 µg/mL (≈ 53.4 µM)
MIC [18]: 16 µg/mL (≈ 53.4 µM)
MIC [19]: 16 µg/mL (≈ 53.4 µM)
MIC [20]: 16 µg/mL (≈ 53.4 µM)
MIC [21]: 16 µg/mL (≈ 53.4 µM)
MIC [22]: 16 µg/mL (≈ 53.4 µM)
MIC [23]: 16 µg/mL (≈ 53.4 µM)
MIC [24]: 16 µg/mL (≈ 53.4 µM)
MIC [25]: 16 µg/mL (≈ 53.4 µM)
MIC [26]: 16 µg/mL (≈ 53.4 µM)
MIC [27]: 64 µg/mL (≈ 214 µM)
MIC [28]: 2 µg/mL (≈ 6.68 µM)
MIC [29]: 4 µg/mL (≈ 13.4 µM)
MIC [30]: 16 µg/mL (≈ 53.4 µM)
MIC [31]: 2 µg/mL (≈ 6.68 µM)
MIC [32]: 2 µg/mL (≈ 6.68 µM)
MIC [33]: 2 µg/mL (≈ 6.68 µM)
MIC [34]: 2 µg/mL (≈ 6.68 µM)
MIC [35]: 2 µg/mL (≈ 6.68 µM)
MIC [36]: 2 µg/mL (≈ 6.68 µM)
MIC [37]: 0.5 µg/mL (≈ 1.67 µM)
MIC [38]: 2 µg/mL (≈ 6.68 µM)
MIC [39]: 4 µg/mL (≈ 13.4 µM)
MIC [40]: 8 µg/mL (≈ 26.7 µM)
MIC [41]: 16 µg/mL (≈ 53.4 µM)
MIC [42]: 4 µg/mL (≈ 13.4 µM)
MIC [43]: 4 µg/mL (≈ 13.4 µM)
MIC [44]: 2 µg/mL (≈ 6.68 µM)
MIC [45]: 0.5 µg/mL (≈ 1.67 µM)
MIC [46]: 8 µg/mL (≈ 26.7 µM)
MIC [47]: 8 µg/mL (≈ 26.7 µM)
MIC [48]: 8 µg/mL (≈ 26.7 µM)
MIC [49]: 4 µg/mL (≈ 13.4 µM)
MIC [50]: 16 µg/mL (≈ 53.4 µM)
MIC [51]: 4 µg/mL (≈ 13.4 µM)
MIC [52]: 16 µg/mL (≈ 53.4 µM)
MIC [53]: 8 µg/mL (≈ 26.7 µM)
MIC [54]: 16 µg/mL (≈ 53.4 µM)
MIC [55]: 16 µg/mL (≈ 53.4 µM)
MIC [56]: 32 µg/mL (≈ 107 µM)
MIC [57]: 1 µg/mL (≈ 3.34 µM)

C[C@@H](O)[C@H]1C(=O)N2C(C(=O)O)=C(S[C@@H]3CN[C@H](C(=O)N(C)C)C3)[C@H](C)[C@H]12 [MEROPENEM]
MIC [1]: 32 µg/mL (≈ 83.4 µM)
MIC [2]: 8 µg/mL (≈ 20.9 µM)
MIC [58]: 4 µg/mL (≈ 10.4 µM)
MIC [4]: 4 µg/mL (≈ 10.4 µM)
MIC [5]: 32 µg/mL (≈ 83.4 µM)
MIC [6]: 8 µg/mL (≈ 20.9 µM)
MIC [7]: 4 µg/mL (≈ 10.4 µM)
MIC [8]: 32 µg/mL (≈ 83.4 µM)
MIC [9]: 8 µg/mL (≈ 20.9 µM)
MIC [59]: 4 µg/mL (≈ 10.4 µM)
MIC [11]: 8 µg/mL (≈ 20.9 µM)
MIC [12]: 4 µg/mL (≈ 10.4 µM)
MIC [13]: 8 µg/mL (≈ 20.9 µM)
MIC [14]: 4 µg/mL (≈ 10.4 µM)
MIC [15]: 8 µg/mL (≈ 20.9 µM)
MIC [16]: 8 µg/mL (≈ 20.9 µM)
MIC [17]: 8 µg/mL (≈ 20.9 µM)
MIC [18]: 8 µg/mL (≈ 20.9 µM)
MIC [19]: 8 µg/mL (≈ 20.9 µM)
MIC [20]: 8 µg/mL (≈ 20.9 µM)
MIC [21]: 8 µg/mL (≈ 20.9 µM)
MIC [22]: 8 µg/mL (≈ 20.9 µM)
MIC [23]: 8 µg/mL (≈ 20.9 µM)
MIC [24]: 16 µg/mL (≈ 41.7 µM)
MIC [25]: 8 µg/mL (≈ 20.9 µM)
MIC [60]: 4 µg/mL (≈ 10.4 µM)
MIC [61]: 8 µg/mL (≈ 20.9 µM)
MIC [26]: 8 µg/mL (≈ 20.9 µM)
MIC [27]: 16 µg/mL (≈ 41.7 µM)
MIC [62]: 8 µg/mL (≈ 20.9 µM)
MIC [63]: 4 µg/mL (≈ 10.4 µM)
MIC [28]: 4 µg/mL (≈ 10.4 µM)
MIC [29]: 16 µg/mL (≈ 41.7 µM)
MIC [30]: 8 µg/mL (≈ 20.9 µM)
MIC [31]: 2 µg/mL (≈ 5.22 µM)
MIC [32]: 2 µg/mL (≈ 5.22 µM)
MIC [33]: 2 µg/mL (≈ 5.22 µM)
MIC [34]: 4 µg/mL (≈ 10.4 µM)
MIC [35]: 4 µg/mL (≈ 10.4 µM)
MIC [36]: 2 µg/mL (≈ 5.22 µM)
MIC [37]: 2 µg/mL (≈ 5.22 µM)
MIC [38]: 2 µg/mL (≈ 5.22 µM)
MIC [64]: 4 µg/mL (≈ 10.4 µM)
MIC [39]: 2 µg/mL (≈ 5.22 µM)
MIC [40]: 4 µg/mL (≈ 10.4 µM)
MIC [41]: 32 µg/mL (≈ 83.4 µM)
MIC [42]: 4 µg/mL (≈ 10.4 µM)
MIC [43]: 4 µg/mL (≈ 10.4 µM)
MIC [44]: 16 µg/mL (≈ 41.7 µM)
MIC [45]: 1 µg/mL (≈ 2.61 µM)
MIC [46]: 8 µg/mL (≈ 20.9 µM)
MIC [47]: 16 µg/mL (≈ 41.7 µM)
MIC [48]: 8 µg/mL (≈ 20.9 µM)
MIC [49]: 4 µg/mL (≈ 10.4 µM)
MIC [51]: 4 µg/mL (≈ 10.4 µM)
MIC [52]: 32 µg/mL (≈ 83.4 µM)
MIC [53]: 8 µg/mL (≈ 20.9 µM)
MIC [54]: 8 µg/mL (≈ 20.9 µM)
MIC [55]: 8 µg/mL (≈ 20.9 µM)
MIC [56]: 16 µg/mL (≈ 41.7 µM)
MIC [57]: 2 µg/mL (≈ 5.22 µM)

— ChEMBL document CHEMBL1649267, “Molecular epidemiology and mechanisms of carbapenem resistance in Pseudomonas aeruginosa” (2009)
